Measurements reported in ChEMBL document CHEMBL3886297, “Cinnamoyl inhibitors of transglutaminase” (2015).

Molecular target: T1, Protein-glutamine gamma-glutamyltransferase 2 (Cavia cutleri, UniProt P08587)
T1 sequence (P08587 whole entry): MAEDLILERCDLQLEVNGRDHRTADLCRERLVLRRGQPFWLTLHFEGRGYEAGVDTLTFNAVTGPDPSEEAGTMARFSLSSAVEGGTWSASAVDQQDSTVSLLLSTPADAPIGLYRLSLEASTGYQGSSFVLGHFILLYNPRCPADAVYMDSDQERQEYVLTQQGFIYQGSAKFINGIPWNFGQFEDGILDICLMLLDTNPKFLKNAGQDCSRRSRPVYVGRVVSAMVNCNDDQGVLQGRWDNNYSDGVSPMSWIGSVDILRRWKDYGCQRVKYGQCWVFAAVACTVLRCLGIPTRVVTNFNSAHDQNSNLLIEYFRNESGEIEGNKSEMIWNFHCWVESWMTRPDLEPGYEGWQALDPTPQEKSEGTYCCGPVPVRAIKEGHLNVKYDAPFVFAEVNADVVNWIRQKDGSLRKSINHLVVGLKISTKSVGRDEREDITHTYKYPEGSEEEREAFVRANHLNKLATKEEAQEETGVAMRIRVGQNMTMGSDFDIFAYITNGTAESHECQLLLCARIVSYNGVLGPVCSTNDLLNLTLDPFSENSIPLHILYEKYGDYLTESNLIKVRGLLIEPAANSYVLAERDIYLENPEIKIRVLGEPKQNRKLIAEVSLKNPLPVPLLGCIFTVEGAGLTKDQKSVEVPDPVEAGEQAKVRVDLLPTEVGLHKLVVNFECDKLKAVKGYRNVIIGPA
Experiment: Enzyme Inhibition Assay: For enzymology studies of these compounds, recombinant guinea pig liver TGase was expressed in Escherichia coli and effectively purified (Gillet, S. M. F. G. et al J. N., Prot. Exp. & Purif. 2004, 33, 256). […] The mode of inhibition was determined for the representative lead compound.

## O=C(/C=C/c1ccc([N+](=O)[O-])cc1)n1ccnc1
  IC50: > 20 µM

## O=C(/C=C/c1ccc([N+](=O)[O-])cc1)NCc1ccccc1
  IC50: > 50 µM
